Patent US10907219B2, “Compositions and methods for controlling cellular function” (STC.UNM, priority 2014, dated 2021)

Assays:
[1] = system: myr-ABI and EGFP-PYL-Tiam1 in CHO cells; test: Live cell imaging of cytoskeletal remodeling; type: cell-based; conditions: 405 nm irradiation
Protocol: (§1) To test the uncaging process in live cell experiments, EGFP nuclear export experiments were carried out by transfecting CHO cells with EGFP-PYL and NES-ABI constructs. The cells were then either treated with 10 μM ABA-DEACM and with or without 405 nm light irradiation under a confocal microscope, or with no drug but irradiated. The subcellular location of EGFP was followed for 20 minutes after irradiation. […] We also tested the use of ABA-DEACM in live cell imaging to induce cell morphology changes. We transfected CHO cells in a culture chamber with myr-ABI and EGFP-PYLTiam1 constructs.
Live cell confocal microscopy irradiation and imaging: EGFP fluorescence of CHO cells was detected with an LSM 510 Meta confocal mounted on an AxioObserver inverted microscope (Carl Zeiss AG, Oberkochen, Germany). ABA-DEACM was uncaged by using a 405 nm UV laser (25 mW) set to 25% power for approximately three seconds. To image, fluorescence was excited with the 488 nm line of an argon laser (30 mW) with laser power attenuated to 50%. EGFP emission was collected with a FITC filter. Live cells were plated in 8-well coverslip-bottom culture chambers in medium (200 μL) and maintained at 37° C. with an objective lens heater (Bioptechs Inc., Butler, Pa.). Culture medium was exchanged with OptiMEM (GIBCO, Life Technologies, Carlsbad, Calif.) with caged ABA or no drug prior to imaging. Images were acquired every 10 to 20 seconds in different experiments with a 63×5/1.2 NA water objective.

[2] = system: EGFP-PYL and NES-ABI in CHO cells; test: Live cell confocal EGFP nuclear export; type: cell-based; conditions: 10 μM, 405 nm irradiation, followed 20 minutes
Protocol: as §1
Live cell confocal microscopy irradiation and imaging: EGFP fluorescence of CHO cells was detected with an LSM 510 Meta confocal mounted on an AxioObserver inverted microscope (Carl Zeiss AG, Oberkochen, Germany). […] To image, fluorescence was excited with the 488 nm line of an argon laser (30 mW) with laser power attenuated to 50%. […]
Image analysis of fluorescence intensity in nuclear export experiments: Generated images were analyzed for fluorescence intensity by using Slide Book v.6 software (Intelligent Imaging Innovations, Inc., Denver, Colo.). Equal sized regions of interest were analyzed from the cytoplasm and the nucleus to compare fluorescent intensity of EGFP in three cells for each condition from images taken every 20 seconds for a duration of 20 minutes.

[3] = Chemical stability of ABA-HP in HEPES/DMSO (HPLC); type: physicochemical; conditions: 1 mM, 50% HEPES/DMSO pH 7.4, 37° C., 24 hours
Protocol: (§2) Chemical stability and reactivity of ABA-HP towards H2O2: ABA-HP chemical stability: 1 mM ABA-HP (in DMSO) was incubated in 50% HEPES/DMSO (10 mM HEPES, pH 7.4) for 24 hours at 37° C. HPLC results were detected at 0 minutes, 20 minutes, 40 minutes, 60 minutes, 80 minutes, 100 minutes, 120 minutes, 240 minutes, and 24 hours. ABA-HP reactivity towards H2O2: 1 mM ABA-HP was incubated with 5 mM (5 eq) H2O2 in 50% HEPES/DMSO (10 mM HEPES, pH 7.4) at 37° C. HPLC results were detected at 0 minutes, 20 minutes, 40 minutes, 80 minutes, 100 minutes, 120 minutes, and 240 minutes (FIGS. 1c, 4a and 4b). 100 mM H2O2 was diluted with 11 μL of 30% (10 M) stock H2O2 (VWR) and 989 μL of ddH2O. […] HPLC chromatograms were acquired using an ULTIMATE 3000 LC System (Thermo Fisher Scientific, Waltham, Mass.) with ACCLAIM 120 Å, C18, 3 μm analytical (4.6×100 mm) column (Thermo Fisher Scientific, Waltham, Mass.). Chromatographic conditions: eluent A: 0.1% v/v TFA in water; eluent B: 0.1% v/v TFA in acetonitrile. ABA in ethanol or ABA-HP in DMSO was eluted at a flow rate of 0.750 ml/min monitored at a wavelength of 260 nm. 0-12 min (linear): 95% A, 5% B to 5% A, 95% B; 12-15 min: 5% A, 95% B; 15-17 min (linear): 5% A, 95% B to 95% A, 5% B. Generation of ABA was quantified by the peak area of ABA out of the total peak area.

[4] = ABA-HP reactivity towards H2O2 (HPLC); type: physicochemical; conditions: 1 mM + H2O2 (5 eq), 50% HEPES/DMSO, 37° C.
Protocol: as §2

[5] = Reaction selectivity of ABA-HP versus different molecules (HPLC); type: physicochemical; conditions: four hours
Protocol: Reaction selectivity versus different molecules: 100 μM ABA-HP was incubated with 100 μM (1 eq) of different molecules in 50% HEPES/DMSO (pH 7.4) at 37° C. for 4 hours and detected by HPLC. H2S was generated by 100 μM Na2S solution in HEPES buffer, which can slowly release H2S. .OH and .OtBu were generated by reaction of Fe^2+ with H2O2 or tert-butyl hydroperoxide (TBHP), respectively. HPLC condition was the same as the stability and reactivity test of ABA-HP.

| SMILES | start of membrane ruffling after uncaging [1] [min] | time to formation of fillopodia and lemellopodia [1] [min] | time to formation of filopodia and lamellipodia [1] [min] | nuclear export of EGFP fusion proteins [2] | chemical stability in biological buffer [3] | completion of transformation to ABA [4] | start of conversion back to ABA [4] | stability against other ROS, H2S, metal ions ([5]; 100 μM ABA-HP, molecules at 100 μM, 37° C.) | effect of Cu^+ and Cu^2+ ([5]; Cu^+ and Cu^2+ at 10 μM) | cleavage by Cu^+ and Cu^2+ ([5]; Cu^+ and Cu^2+ at 100 μM) |
| --- | --- | --- | --- | --- | --- | --- | --- | --- | --- | --- |
| CCN(CC)c1ccc2c(COC(=O)/C=C(C)\C=C\[C@@]3(O)C(C)=CC(=O)CC3(C)C)cc(=O)oc2c1 [ABA-DEACM] | 5 | ≤ 15 | ≤ 15 | observed within a few minutes | – | – | – | – | – | – |
| CC1=CC(=O)CC(C)(C)[C@@]1(O)/C=C/C(C)=C\C(=O)OCc1ccc(B2OC(C)(C)C(C)(C)O2)cc1 [ABA-HP] | – | – | – | – | stable in biological buffer at 37 °C throughout the 24-hour observation period | completed in four hours | within minutes | stable against all molecules tested at 100 μM | no effects | minimal amount of cleavage |
